From patent publication US9546164B2 (GENENTECH, INC., priority 2013, dated 2017)
Where a name gives a salt, the structure may show the parent alone. Read-outs that look alike come from different tables or passages of the source.

Molecular target: hNav1.7 (Homo sapiens (Human), UniProt Q15858)
Assay: Tritiated sulfonamide competitive binding to membranes from cells expressing hNav1.7 and the β1 subunit;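 note: Filter-bound radioactivity counted by liquid scintillation, nonspecific binding defined with excess unlabelled ligand, IC50 fitted to percent inhibition of specific binding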
[1] = read-out: Ligand Binding Assay, 100 pM [3H]compound, membranes with hNav1.7 and β1 subunit, 18 h, room temperature, trifluoroacetic acid salt
[2] = read-out: Ligand Binding Assay, 100 pM [3H]compound, membranes with hNav1.7 and β1 subunit, 18 h, room temperature

hNav1.7, sequence (Q15858 other isoform, or with tags, fused parts or gaps): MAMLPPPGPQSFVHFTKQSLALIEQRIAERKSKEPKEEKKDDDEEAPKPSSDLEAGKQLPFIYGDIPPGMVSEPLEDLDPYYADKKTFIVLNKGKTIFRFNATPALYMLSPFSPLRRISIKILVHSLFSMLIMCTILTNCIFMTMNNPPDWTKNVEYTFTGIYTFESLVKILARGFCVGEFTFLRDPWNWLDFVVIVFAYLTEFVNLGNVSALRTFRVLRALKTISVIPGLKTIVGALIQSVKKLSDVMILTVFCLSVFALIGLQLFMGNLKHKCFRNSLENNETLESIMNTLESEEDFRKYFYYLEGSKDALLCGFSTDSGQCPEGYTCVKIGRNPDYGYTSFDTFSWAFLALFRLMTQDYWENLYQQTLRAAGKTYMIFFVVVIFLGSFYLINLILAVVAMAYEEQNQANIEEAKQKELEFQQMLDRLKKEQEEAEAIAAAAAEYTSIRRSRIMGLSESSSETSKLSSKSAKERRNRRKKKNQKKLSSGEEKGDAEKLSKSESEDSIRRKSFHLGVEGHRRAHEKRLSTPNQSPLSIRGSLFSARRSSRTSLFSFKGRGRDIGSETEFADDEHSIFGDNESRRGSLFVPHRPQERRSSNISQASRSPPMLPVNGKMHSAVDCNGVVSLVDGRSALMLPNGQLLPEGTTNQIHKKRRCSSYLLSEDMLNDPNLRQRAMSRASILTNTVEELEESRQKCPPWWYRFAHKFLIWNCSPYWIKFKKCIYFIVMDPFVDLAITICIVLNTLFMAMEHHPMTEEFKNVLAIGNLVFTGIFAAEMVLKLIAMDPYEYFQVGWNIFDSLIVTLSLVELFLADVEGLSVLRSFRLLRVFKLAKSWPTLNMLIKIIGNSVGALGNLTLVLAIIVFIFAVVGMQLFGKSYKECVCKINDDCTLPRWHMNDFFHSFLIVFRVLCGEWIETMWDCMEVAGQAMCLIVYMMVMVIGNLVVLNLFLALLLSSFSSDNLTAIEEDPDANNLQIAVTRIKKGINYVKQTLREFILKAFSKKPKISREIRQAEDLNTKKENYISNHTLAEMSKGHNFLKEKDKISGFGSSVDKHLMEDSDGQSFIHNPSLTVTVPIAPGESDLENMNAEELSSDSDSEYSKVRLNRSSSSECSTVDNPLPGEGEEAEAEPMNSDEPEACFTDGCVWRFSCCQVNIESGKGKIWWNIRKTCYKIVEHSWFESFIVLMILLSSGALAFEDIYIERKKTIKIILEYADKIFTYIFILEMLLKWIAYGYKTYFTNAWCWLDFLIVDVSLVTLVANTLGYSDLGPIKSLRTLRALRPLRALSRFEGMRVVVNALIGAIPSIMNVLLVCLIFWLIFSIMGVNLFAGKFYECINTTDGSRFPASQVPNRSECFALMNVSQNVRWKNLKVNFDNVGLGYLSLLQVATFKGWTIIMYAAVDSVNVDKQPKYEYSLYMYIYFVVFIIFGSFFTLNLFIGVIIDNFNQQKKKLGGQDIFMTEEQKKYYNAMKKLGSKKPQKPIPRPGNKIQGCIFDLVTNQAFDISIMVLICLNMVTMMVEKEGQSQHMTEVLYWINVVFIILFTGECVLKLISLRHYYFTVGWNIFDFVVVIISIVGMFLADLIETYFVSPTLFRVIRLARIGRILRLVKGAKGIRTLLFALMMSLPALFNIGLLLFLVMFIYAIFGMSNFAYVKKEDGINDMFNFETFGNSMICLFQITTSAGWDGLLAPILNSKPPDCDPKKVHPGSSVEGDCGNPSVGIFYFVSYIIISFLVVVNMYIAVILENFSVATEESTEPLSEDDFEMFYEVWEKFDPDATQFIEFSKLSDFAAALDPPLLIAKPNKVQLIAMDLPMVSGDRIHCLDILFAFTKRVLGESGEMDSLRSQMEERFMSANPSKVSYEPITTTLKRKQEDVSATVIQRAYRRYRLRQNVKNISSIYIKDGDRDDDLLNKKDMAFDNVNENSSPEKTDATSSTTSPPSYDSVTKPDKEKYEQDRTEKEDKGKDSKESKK
hNav1.7, sequence (Q07699 19-218 partner): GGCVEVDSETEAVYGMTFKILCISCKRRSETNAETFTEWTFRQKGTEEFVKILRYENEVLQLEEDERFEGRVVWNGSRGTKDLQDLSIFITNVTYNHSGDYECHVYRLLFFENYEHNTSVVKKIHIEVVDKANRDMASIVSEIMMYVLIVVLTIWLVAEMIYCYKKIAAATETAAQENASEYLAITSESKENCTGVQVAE

Row | Compound | IC50 [2] | IC50 | further results
1 | CS(=O)(=O)NC(=O)c1cc(C2CC2)c(CN2[C@@H]3CC[C@H]2C[C@@H](Oc2ncc(C(F)(F)F)cc2Cl)C3)cc1F [Example 552, 4-(((1R,3r,5S)-3-((3-chloro-5-(trifluoromethyl)pyridin-2-yl)oxy)-8-azabicyclo[3.2.1]octan-8-yl)methyl)-5-cyclopropyl-2-fluoro-N-(methylsulfonyl)benzamide, trifluoroacetic acid salt] |  |  | IC50 [1]: 7 nM
2 | CS(=O)(=O)NC(=O)c1cc(C2CC2)c(CN2[C@@H]3CC[C@H]2C[C@@H](Oc2ncc(C(F)(F)F)cc2Cl)C3)cc1F [Example 553, 4-(((1R,3r,5S)-3-((3-chloro-5-(trifluoromethyl)pyridin-2-yl)oxy)-8-azabicyclo[3.2.1]octan-8-yl)methyl)-5-cyclopropyl-2-fluoro-N-(methylsulfonyl)benzamide, trifluoroacetic acid salt] |  |  | IC50 [1]: 6.1 nM
3 | CS(=O)(=O)NC(=O)c1cc(C2CC2)c(OCC2CCN(c3cc(C(F)(F)F)c(Cl)cn3)CC2)cc1F [Example 554, 4-((1-(5-chloro-4-(trifluoromethyl)pyridin-2-yl)piperidin-4-yl)methoxy)-5-cyclopropyl-2-fluoro-N-(methylsulfonyl)benzamide] | 3.2 nM |  | 
4 | O=C(NS(=O)(=O)C1CC1)c1cc(C2CC2)c(OCC2CCN(c3cc(C(F)(F)F)c(Cl)cn3)CC2)cc1F [Example 555, 4-((1-(5-chloro-4-(trifluoromethyl)pyridin-2-yl)piperidin-4-yl)methoxy)-5-cyclopropyl-N-(cyclopropylsulfonyl)-2-fluorobenzamide] | 2.9 nM |  | 
5 | CC1(COc2cc(F)c(C(=O)NS(C)(=O)=O)cc2C2CC2)CCN(c2cc(C(F)(F)F)c(Cl)cn2)CC1 [Example 556, 4-((1-(5-chloro-4-(trifluoromethyl)pyridin-2-yl)-4-methylpiperidin-4-yl)methoxy)-5-cyclopropyl-2-fluoro-N-(methylsulfonyl)benzamide] | 2.1 nM |  | 
6 | CC1(COc2cc(F)c(C(=O)NS(=O)(=O)C3CC3)cc2C2CC2)CCN(c2cc(C(F)(F)F)c(Cl)cn2)CC1 [Example 557, 4-((1-(5-chloro-4-(trifluoromethyl)pyridin-2-yl)-4-methylpiperidin-4-yl)methoxy)-5-cyclopropyl-N-(cyclopropylsulfonyl)-2-fluorobenzamide] | 2.7 nM |  | 
7 | O=C(NS(=O)(=O)C1CC1)c1cc(C2CC2)c(CN2C[C@@H]3C[C@H]2CN3S(=O)(=O)c2cc(Cl)cc(Cl)c2)cc1F [Example 559, 5-cyclopropyl-N-(cyclopropylsulfonyl)-4-(((1S,4S)-5-((3,5-dichlorophenyl)sulfonyl)-2,5-diazabicyclo[2.2.1]heptan-2-yl)methyl)-2-fluorobenzamide, trifluoroacetic acid salt] |  | 18.9 nM | 
8 | CS(=O)(=O)NC(=O)c1cc(C2CC2)c(CN2[C@@H]3CC[C@H]2C[C@@H](Oc2cc(Cl)cc(OC(F)(F)F)c2)C3)cc1F [Example 560, 4-(((1R,3r,5S)-3-(3-chloro-5-(trifluoromethoxy)phenoxy)-8-azabicyclo[3.2.1]octan-8-yl)methyl)-5-cyclopropyl-2-fluoro-N-(methylsulfonyl)benzamide, trifluoroacetic acid salt] | 2.8 nM |  | 
9 | CC1(C)CN(Cc2cc(F)c(C(=O)NS(C)(=O)=O)cc2C2CC2)CCC1Oc1cc(C(F)(F)F)c(Cl)cn1 (stereo not shown) [Example 561, 4-((4-((5-chloro-4-(trifluoromethyl)pyridin-2-yl)oxy)-3,3-dimethylpiperidin-1-yl)methyl)-5-cyclopropyl-2-fluoro-N-(methylsulfonyl)benzamide, trifluoroacetic acid salt] |  | 2.8 nM | 
10 | CC1(C)CN(Cc2cc(F)c(C(=O)NS(=O)(=O)C3CC3)cc2C2CC2)CCC1Oc1cc(C(F)(F)F)c(Cl)cn1 (stereo not shown) [Example 562, 4-((4-((5-chloro-4-(trifluoromethyl)pyridin-2-yl)oxy)-3,3-dimethylpiperidin-1-yl)methyl)-5-cyclopropyl-N-(cyclopropylsulfonyl)-2-fluorobenzamide, trifluoroacetic acid salt] |  | 3.1 nM | 
11 | C[C@@H](c1cc(Cl)cc(Cl)c1)N1C[C@@H]2C[C@H]1CN2Cc1cc(F)c(C(=O)NS(=O)(=O)C2CC2)cc1C1CC1 [Example 564, 5-cyclopropyl-N-(cyclopropylsulfonyl)-4-(((1S,4S)-5-((S)-1-(3,5-dichlorophenyl)ethyl)-2,5-diazabicyclo[2.2.1]heptan-2-yl)methyl)-2-fluorobenzamide, trifluoroacetic acid salt] |  | 3.6 nM | 
12 | C[C@H](c1cc(Cl)cc(Cl)c1)N1CCN(Cc2cc(F)c(C(=O)NS(C)(=O)=O)cc2C2CC2)C[C@@H]1C [Example 565, 5-cyclopropyl-4-(((S)-4-((R)-1-(3,5-dichlorophenyl)ethyl)-3-methylpiperazin-1-yl)methyl)-2-fluoro-N-(methylsulfonyl)benzamide] |  | 4.1 nM | 
13 | C[C@H](c1cc(Cl)cc(Cl)c1)N1CCN(Cc2cc(F)c(C(=O)NS(=O)(=O)C3CC3)cc2C2CC2)C[C@@H]1C [Example 566, 5-cyclopropyl-N-(cyclopropylsulfonyl)-4-(((S)-4-((R)-1-(3,5-dichlorophenyl)ethyl)-3-methylpiperazin-1-yl)methyl)-2-fluorobenzamide] |  | 2.7 nM | 
14 | C[C@H]1CN(Cc2cc(F)c(C(=O)NS(C)(=O)=O)cc2C2CC2)CCN1[C@@H](C)c1cc(Cl)cc(Cl)c1 [Example 567, 5-cyclopropyl-4-(((S)-4-((S)-1-(3,5-dichlorophenyl)ethyl)-3-methylpiperazin-1-yl)methyl)-2-fluoro-N-(methylsulfonyl)benzamide] |  | 15.2 nM | 
15 | C[C@H]1CN(Cc2cc(F)c(C(=O)NS(=O)(=O)C3CC3)cc2C2CC2)CCN1[C@@H](C)c1cc(Cl)cc(Cl)c1 [Example 568, 5-cyclopropyl-N-(cyclopropylsulfonyl)-4-(((S)-4-((S)-1-(3,5-dichlorophenyl)ethyl)-3-methylpiperazin-1-yl)methyl)-2-fluorobenzamide] |  | 9.5 nM | 
16 | C[C@@H]1CN(Cc2cc(F)c(C(=O)NS(=O)(=O)C3CC3)cc2C2CC2)CCN1[C@H](C)c1cc(Cl)cc(Cl)c1 [Example 570, 5-cyclopropyl-N-(cyclopropylsulfonyl)-4-(((R)-4-((R)-1-(3,5-dichlorophenyl)ethyl)-3-methylpiperazin-1-yl)methyl)-2-fluorobenzamide] |  | 2.9 nM | 
17 | C[C@@H]1CN(Cc2cc(F)c(C(=O)NS(C)(=O)=O)cc2C2CC2)CCN1[C@@H](C)c1cc(Cl)cc(Cl)c1 [Example 571, 5-cyclopropyl-4-(((R)-4-((S)-1-(3,5-dichlorophenyl)ethyl)-3-methylpiperazin-1-yl)methyl)-2-fluoro-N-(methylsulfonyl)benzamide] |  | 44.3 nM | 
18 | C[C@@H]1CN(Cc2cc(F)c(C(=O)NS(=O)(=O)C3CC3)cc2C2CC2)CCN1[C@@H](C)c1cc(Cl)cc(Cl)c1 [Example 572, 5-cyclopropyl-N-(cyclopropylsulfonyl)-4-(((R)-4-((S)-1-(3,5-dichlorophenyl)ethyl)-3-methylpiperazin-1-yl)methyl)-2-fluorobenzamide] |  | 21.6 nM | 
19 | CS(=O)(=O)NC(=O)c1cc(C2CC2)c(O[C@H]2CCCN(Cc3ccc(F)cc3Cl)C2)cc1F [Example 573, (S)-4-((1-(2-chloro-4-fluorobenzyl)piperidin-3-yl)oxy)-5-cyclopropyl-2-fluoro-N-(methylsulfonyl)] | 107 nM |  | 
20 | CC1(COc2cc(F)c(C(=O)NS(C)(=O)=O)cc2C2CC2)CCN(C(c2ccccc2)c2ccccc2)CC1 [Example 574, 4-((1-benzhydryl-4-methylpiperidin-4-yl)methoxy)-5-cyclopropyl-2-fluoro-N-(methylsulfonyl)benzamide] | 2.9 nM |  | 
21 | CC1(COc2cc(F)c(C(=O)NS(C)(=O)=O)cc2C2CC2)CCN(Cc2ccc(Cl)c(Cl)c2)CC1 [Example 575, 5-cyclopropyl-4-((1-(3,4-dichlorobenzyl)-4-methylpiperidin-4-yl)methoxy)-2-fluoro-N-(methylsulfonyl)benzamide] | 4.5 nM |  | 
22 | COc1cccc(CN2CCC(C)(COc3cc(F)c(C(=O)NS(C)(=O)=O)cc3C3CC3)CC2)n1 [Example 576] | 270 nM |  | 
23 | CC1(COc2cc(F)c(C(=O)NS(C)(=O)=O)cc2C2CC2)CCN(C(=O)c2cc(Cl)c(Cl)cc2F)CC1 [Example 577, 5-cyclopropyl-4-((1-(4,5-dichloro-2-fluorobenzoyl)-4-methylpiperidin-4-yl)methoxy)-2-fluoro-N-(methylsulfonyl)benzamide] | 40 nM |  | 
24 | CC1(COc2cc(F)c(C(=O)NS(C)(=O)=O)cc2C2CC2)CCN(C(=O)c2cc(Cl)ccc2Cl)CC1 [Example 578, 5-cyclopropyl-4-((1-(2,5-dichlorobenzoyl)-4-methylpiperidin-4-yl)methoxy)-2-fluoro-N-(methylsulfonyl)benzamide] | 180 nM |  | 
25 | CS(=O)(=O)NC(=O)c1cc(C2CC2)c(OCC2CCN(Cc3ccc(Cl)cc3C(F)(F)F)CC2)cc1F [Example 579, 4-((1-(4-chloro-2-(trifluoromethyl)benzyl)piperidin-4-yl)methoxy)-5-cyclopropyl-2-fluoro-N-(methylsulfonyl)benzamide] | 2.9 nM |  | 
26 | CS(=O)(=O)NC(=O)c1cc(C2CC2)c(OCC2CCN(Cc3cc(C(F)(F)F)ccc3Cl)CC2)cc1F [Example 580, 4-((1-(2-chloro-5-(trifluoromethyl)benzyl)piperidin-4-yl)methoxy)-5-cyclopropyl-2-fluoro-N-(methylsulfonyl)benzamide] | 3.7 nM |  | 
27 | CS(=O)(=O)NC(=O)c1cc(C2CC2)c(OCC2CCN(Cc3cc(C(F)(F)F)cc(Cl)c3F)CC2)cc1F [Example 581, 4-((1-(3-chloro-2-fluoro-5-(trifluoromethyl)benzyl)piperidin-4-yl)methoxy)-5-cyclopropyl-2-fluoro-N-(methylsulfonyl)benzamide] | 3.8 nM |  | 
28 | O=C(NS(=O)(=O)C1CC1)c1cc(C2CC2)c(OCC2CCN(Cc3cc(C(F)(F)F)cc(Cl)c3F)CC2)cc1F [Example 582, 4-((1-(3-chloro-2-fluoro-5-(trifluoromethyl)benzyl)piperidin-4-yl)methoxy)-5-cyclopropyl-N-(cyclopropylsulfonyl)-2-fluorobenzamide] | 4.2 nM |  | 
